In the test the target is 11-beta-hydroxysteroid dehydrogenase 1 (Homo sapiens, UniProt P28845). The experiment in a line: Inhibition of human 11beta-HSD1 using [3H]cortisone as substrate assessed as production of [3H]-cortisol by scintillation proximity assay. For orientation: Scintillation proximity formats need no separation of bound from free tracer.

Where only a bound is given, the exact number is not on record here.

As usually defined, the IC50 is the midpoint of a concentration-inhibition curve.

11-beta-hydroxysteroid dehydrogenase 1, sequence (P28845 whole entry): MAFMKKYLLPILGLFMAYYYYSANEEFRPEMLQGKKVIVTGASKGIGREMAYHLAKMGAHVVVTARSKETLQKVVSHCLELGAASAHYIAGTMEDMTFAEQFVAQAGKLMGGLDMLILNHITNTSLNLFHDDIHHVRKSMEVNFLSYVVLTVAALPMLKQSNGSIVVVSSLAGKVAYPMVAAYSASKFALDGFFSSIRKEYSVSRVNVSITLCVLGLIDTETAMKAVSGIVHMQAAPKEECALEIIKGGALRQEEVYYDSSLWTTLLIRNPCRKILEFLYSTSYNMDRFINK

Regarding `CN(c1ccc(C(C)(O)C(F)(F)F)cc1)S(=O)(=O)c1ccccc1` (racemic), the IC50 is above 1 µM.

As for `CC(O)(c1ccc(NS(=O)(=O)c2ccccc2)cc1)C(F)(F)F` (racemic), the concentration for half-maximal inhibition (IC50) was above 1 µM.

The record behind these values is ChEMBL document CHEMBL2034897, “Discovery and optimization of benzenesulfonanilide derivatives as a novel class of 11β-HSD1 inhibitors” (Bioorg Med Chem Lett, 2012).
